In article PMC8413292, “Small-molecule polymerase inhibitor protects non-human primates from measles and reduces shedding” (Nature Communications, 2021):
Where “and” joins values, the source holds several entries; their conditions need not be identical. Equal entries are not always repeated.

Legend:
[1] = system: MV/FrankfurtMain.DEU/17.11 (genotype D8); assay: Clinical signs (rash score) in MeV-infected squirrel monkeys; conditions: for animals that developed spots or mild rash in the face or inguinal region: 50 mg/kg b.i.d. 14 days
Procedure: All animal experiments were carried out in compliance with the regulations of German animal protection laws and authorized by the Regierungspräsidium Darmstadt, Germany (Dezernat V54 – Veterinärwesen und Verbraucherschutz, Hilpertstrasse 31, 64295 Darmstadt). Adult male and female squirrel monkeys (Saimiri sciureus) were obtained from BioPRIM, 31450 Baziege, or CNRS 0846 Primatologie, 13790 Rousset, France. Each experimental group was housed in a separate room, and animals of the same sex were caged together within the respective groups. For the single-dose pharmacokinetic experiment, animals were anesthetized, and the drug was given through a stomach tube at a concentration of 50 mg/kg bodyweight. Blood samples were collected after 15, 30, and 60 min, and 2, 3, 6, and 24 h. For efficacy assessment, groups of 6 animals were left untreated or treated with 50 mg/kg of ERDRP-0519 twice daily for two weeks, starting either 12 h before or 3 or 7 days after intranasal infection with 10^6 TCID50 of MV/FrankfurtMain.DEU/17.11. Clinical signs, rectal temperature, and weight were recorded daily, and throat swabs and blood samples were collected before infection and twice weekly thereafter. On day 21 post-infection, the animals were euthanized, necropsied, and samples were collected for histological analysis.

[2] = system: MV/FrankfurtMain.DEU/17.11 (genotype D8); assay: White blood cell counts from whole blood; type: in vivo, squirrel monkeys (Saimiri sciureus); conditions: for WBC Mean Diff, untreated vs. prophylactic / WBC Mean Diff, untreated vs. therapeutic (d7) / WBC Mean Diff, untreated vs. therapeutic(d3): Dunnett's multiple comparisons test; for Cells [10^3/mm^3], white blood cells / Cells/ml, white blood cells / Counted Cells (Total), white blood cells: individual animals
Procedure: White blood cell counts, viral load quantification in PBMCs, and quantification of neutralizing antibody titers were performed as follows: for white blood cell counts, blood was diluted 1:100 in 3% acetic acid and cells were counted using a Neubauer chamber. For viral load quantification in PBMCs, blood was centrifuged at 3000 rpm for 15 min and serum was frozen at −20 °C until further use. Red blood cell lysis was performed and the remaining PBMCs were counted using a Neubauer chamber. Viral titers in PBMCs were quantified in quadruplicates using limited dilution method and calculated as TCID50/10^6 PBMCs. Neutralizing antibody titers were quantified by incubating MeV with 2-fold serial dilutions of the respective serum for 20 min at room temperature in quadruplicates. Vero/hSLAM cells were added and incubated for 3 days at 37 °C. Neutralizing antibody titers are expressed as the reciprocal of the highest serum dilution showing no signs of infection. For virus titration from throat swabs, swabs were placed in 150 μl DMEM with 3% penicillin/streptomycin and the titer was quantified by limited dilution method.

**Q.** `Cn1nc(C(F)(F)F)cc1C(=O)Nc1ccc(S(=O)(=O)N2CCCC[C@H]2CCN2CCOCC2)cc1` [ERDRP-0519] was tested. Which “severe or generalized rash” value ([1]; all treated groups) did it give?
**A.** none of the treated animals experienced severe or generalized rash

**Q.** What about the “animals that developed spots or mild rash in the face or inguinal region” value ([1]; day 3 therapeutic group) of the same compound?
**A.** Four of six animals

**Q.** What about the “deaths during the study” value ([1]; day 3 therapeutic group, day 15 post-infection, authors conclude unrelated to drug or MeV) of the same compound?
**A.** One animal in the day 3 therapeutic group developed mild diarrhea and deceased

**Q.** What about the “animals that developed spots or mild rash in the face or inguinal region” value ([1]; day 7 therapeutic group) of the same compound?
**A.** all animals

**Q.** What about the measles-typical clinical signs ([1]; prophylactic group, 50 mg/kg b.i.d. 14 days from 12 h prior to infection) of the same compound?
**A.** remained free of measles-typical clinical signs

**Q.** What about the “WBC Mean Diff, untreated vs. prophylactic” value ([2]; Row 1 (0 dpi)) of the same compound?
**A.** 0.14 10^3cells/mm^3

**Q.** And the “WBC Mean Diff, untreated vs. therapeutic (d7)” value ([2]; Row 1 (0 dpi))?
**A.** 2 10^3cells/mm^3

**Q.** What about the “WBC Mean Diff, untreated vs. therapeutic(d3)” value ([2]; Row 1 (0 dpi)) of the same compound?
**A.** 0.75 10^3cells/mm^3

**Q.** What about the “WBC Mean Diff, untreated vs. prophylactic” value ([2]; Row 2 (3 dpi)) of the same compound?
**A.** 0.875 10^3cells/mm^3

**Q.** And the “WBC Mean Diff, untreated vs. therapeutic (d7)” value ([2]; Row 2 (3 dpi))?
**A.** -2.625 10^3cells/mm^3

**Q.** What about the “WBC Mean Diff, untreated vs. therapeutic(d3)” value ([2]; Row 2 (3 dpi)) of the same compound?
**A.** -1.042 10^3cells/mm^3

**Q.** What about the “WBC Mean Diff, untreated vs. prophylactic” value ([2]; Row 3 (7 dpi)) of the same compound?
**A.** -2.333 10^3cells/mm^3

**Q.** What about the “WBC Mean Diff, untreated vs. therapeutic (d7)” value ([2]; Row 3 (7 dpi)) of the same compound?
**A.** -0.3333 10^3cells/mm^3

**Q.** What about the “WBC Mean Diff, untreated vs. therapeutic(d3)” value ([2]; Row 3 (7 dpi)) of the same compound?
**A.** -1.375 10^3cells/mm^3

**Q.** And the “WBC Mean Diff, untreated vs. prophylactic” value ([2]; Row 4 (10 dpi))?
**A.** -1.958 10^3cells/mm^3

**Q.** And the “WBC Mean Diff, untreated vs. therapeutic (d7)” value ([2]; Row 4 (10 dpi))?
**A.** -0.5417 10^3cells/mm^3

**Q.** And the “WBC Mean Diff, untreated vs. therapeutic(d3)” value ([2]; Row 4 (10 dpi))?
**A.** -1.167 10^3cells/mm^3

**Q.** What about the “WBC Mean Diff, untreated vs. prophylactic” value ([2]; Row 5 (14 dpi)) of the same compound?
**A.** -1.375 10^3cells/mm^3

**Q.** And the “WBC Mean Diff, untreated vs. therapeutic (d7)” value ([2]; Row 5 (14 dpi))?
**A.** -0.25 10^3cells/mm^3

**Q.** And the “WBC Mean Diff, untreated vs. therapeutic(d3)” value ([2]; Row 5 (14 dpi))?
**A.** -4.767 10^3cells/mm^3

**Q.** What about the “WBC Mean Diff, untreated vs. prophylactic” value ([2]; Row 6 (17 dpi)) of the same compound?
**A.** -1.667 10^3cells/mm^3

**Q.** And the “WBC Mean Diff, untreated vs. therapeutic (d7)” value ([2]; Row 6 (17 dpi))?
**A.** -1.333 10^3cells/mm^3

**Q.** What about the “WBC Mean Diff, untreated vs. therapeutic(d3)” value ([2]; Row 6 (17 dpi)) of the same compound?
**A.** -1.533 10^3cells/mm^3

**Q.** And the “WBC Mean Diff, untreated vs. prophylactic” value ([2]; Row 7 (21 dpi))?
**A.** -1.125 10^3cells/mm^3

**Q.** And the “WBC Mean Diff, untreated vs. therapeutic (d7)” value ([2]; Row 7 (21 dpi))?
**A.** -1.875 10^3cells/mm^3

**Q.** What about the “WBC Mean Diff, untreated vs. therapeutic(d3)” value ([2]; Row 7 (21 dpi)) of the same compound?
**A.** -2.402 10^3cells/mm^3

**Q.** And the “leukopenia (total white blood cell counts)” value ([2]; day 3 treatment group)?
**A.** no leukopenia was observed

**Q.** And the “total white blood cell counts” value ([2]; day 7 treatment group)?
**A.** a trend for lower total white blood cell counts, but this was not significant

**Q.** And the “leukopenia (total white blood cell counts)” value ([2]; prophylactic group)?
**A.** no leukopenia was observed

**Q.** And the “Cells [10^3/mm^3], white blood cells” value ([2]; prophylactic group, 0 dpi)?
**A.** 7.5 10^3/mm^3 and 4.5 10^3/mm^3 and 5.5 10^3/mm^3 and 2.25 10^3/mm^3 and 10.75 10^3/mm^3

**Q.** What about the “Cells/ml, white blood cells” value ([2]; prophylactic group, 0 dpi) of the same compound?
**A.** 4.50E+06 Cells/ml and 5.50E+06 Cells/ml and 2.25E+06 Cells/ml and 1.08E+07 Cells/ml and 7.50E+06 Cells/ml

**Q.** And the “Counted Cells (Total), white blood cells” value ([2]; prophylactic group, 0 dpi)?
**A.** 30 and 18 and 22 and 9 and 43

**Q.** What about the “Cells [10^3/mm^3], white blood cells” value ([2]; prophylactic group, 3 dpi) of the same compound?
**A.** 4.75 10^3/mm^3 (3×) and 4.25 10^3/mm^3 and 4 10^3/mm^3 and 7.25 10^3/mm^3

**Q.** And the “Cells/ml, white blood cells” value ([2]; prophylactic group, 3 dpi)?
**A.** 4.75E+06 Cells/ml (3×) and 4.25E+06 Cells/ml and 4.00E+06 Cells/ml and 7.25E+06 Cells/ml

**Q.** And the “Counted Cells (Total), white blood cells” value ([2]; prophylactic group, 3 dpi)?
**A.** 19 (3×) and 17 and 16 and 29

**Q.** And the “Cells [10^3/mm^3], white blood cells” value ([2]; prophylactic group, 7 dpi)?
**A.** 6 10^3/mm^3 (2×) and 7 10^3/mm^3 and 4.75 10^3/mm^3 (2×) and 6.75 10^3/mm^3

**Q.** And the “Cells/ml, white blood cells” value ([2]; prophylactic group, 7 dpi)?
**A.** 6.00E+06 Cells/ml (2×) and 7.00E+06 Cells/ml and 4.75E+06 Cells/ml (2×) and 6.75E+06 Cells/ml

**Q.** What about the “Counted Cells (Total), white blood cells” value ([2]; prophylactic group, 7 dpi) of the same compound?
**A.** 24 (2×) and 28 and 19 (2×) and 27

**Q.** What about the “Cells [10^3/mm^3], white blood cells” value ([2]; prophylactic group, 10 dpi) of the same compound?
**A.** 4.75 10^3/mm^3 (2×) and 6.5 10^3/mm^3 and 3 10^3/mm^3 and 3.75 10^3/mm^3 and 2 10^3/mm^3

**Q.** What about the “Cells/ml, white blood cells” value ([2]; prophylactic group, 10 dpi) of the same compound?
**A.** 4.75E+06 Cells/ml (2×) and 6.50E+06 Cells/ml and 3.00E+06 Cells/ml and 3.75E+06 Cells/ml and 2.00E+06 Cells/ml

**Q.** What about the “Counted Cells (Total), white blood cells” value ([2]; prophylactic group, 10 dpi) of the same compound?
**A.** 19 (2×) and 26 and 12 and 15 and 8

**Q.** And the “Cells [10^3/mm^3], white blood cells” value ([2]; prophylactic group, 14 dpi)?
**A.** 6 10^3/mm^3 and 3 10^3/mm^3 and 5 10^3/mm^3 (2×) and 3.75 10^3/mm^3 and 2.75 10^3/mm^3

**Q.** And the “Cells/ml, white blood cells” value ([2]; prophylactic group, 14 dpi)?
**A.** 3.00E+06 Cells/ml and 5.00E+06 Cells/ml (2×) and 3.75E+06 Cells/ml and 2.75E+06 Cells/ml and 6.00E+06 Cells/ml

**Q.** What about the “Counted Cells (Total), white blood cells” value ([2]; prophylactic group, 14 dpi) of the same compound?
**A.** 24 and 12 and 20 (2×) and 15 and 11

**Q.** What about the “Cells [10^3/mm^3], white blood cells” value ([2]; prophylactic group, 17 dpi) of the same compound?
**A.** 4.75 10^3/mm^3 and 5.25 10^3/mm^3 and 5.5 10^3/mm^3 and 3.25 10^3/mm^3 and 6.5 10^3/mm^3 and 2.25 10^3/mm^3

**Q.** And the “Cells/ml, white blood cells” value ([2]; prophylactic group, 17 dpi)?
**A.** 5.25E+06 Cells/ml and 5.50E+06 Cells/ml and 3.25E+06 Cells/ml and 6.50E+06 Cells/ml and 2.25E+06 Cells/ml and 4.75E+06 Cells/ml

**Q.** And the “Counted Cells (Total), white blood cells” value ([2]; prophylactic group, 17 dpi)?
**A.** 19 and 21 and 22 and 13 and 26 and 9

**Q.** And the “Cells [10^3/mm^3], white blood cells” value ([2]; prophylactic group, 21 dpi)?
**A.** 5.25 10^3/mm^3 and 3.5 10^3/mm^3 and 7.75 10^3/mm^3 and 2.25 10^3/mm^3 (2×) and 5 10^3/mm^3

**Q.** What about the “Cells/ml, white blood cells” value ([2]; prophylactic group, 21 dpi) of the same compound?
**A.** 3.50E+06 Cells/ml and 7.75E+06 Cells/ml and 2.25E+06 Cells/ml (2×) and 5.00E+06 Cells/ml and 5.25E+06 Cells/ml

**Q.** And the “Counted Cells (Total), white blood cells” value ([2]; prophylactic group, 21 dpi)?
**A.** 21 and 14 and 31 and 9 (2×) and 20

**Q.** What about the “WBC group mean (Mean 2)” value ([2]; prophylactic group, Row 1 (0 dpi)) of the same compound?
**A.** 6.11 10^3cells/mm^3

**Q.** And the “WBC group mean (Mean 2)” value ([2]; prophylactic group, Row 2 (3 dpi))?
**A.** 4.958 10^3cells/mm^3
